Data set [1] has as its target T1, human 5-HT1A receptor (Homo sapiens, UniProt P08908).
T1 construct: expressed in transfected cells; host or cells: CHO cells (stably transfected)
T1 sequence (P08908 1-422): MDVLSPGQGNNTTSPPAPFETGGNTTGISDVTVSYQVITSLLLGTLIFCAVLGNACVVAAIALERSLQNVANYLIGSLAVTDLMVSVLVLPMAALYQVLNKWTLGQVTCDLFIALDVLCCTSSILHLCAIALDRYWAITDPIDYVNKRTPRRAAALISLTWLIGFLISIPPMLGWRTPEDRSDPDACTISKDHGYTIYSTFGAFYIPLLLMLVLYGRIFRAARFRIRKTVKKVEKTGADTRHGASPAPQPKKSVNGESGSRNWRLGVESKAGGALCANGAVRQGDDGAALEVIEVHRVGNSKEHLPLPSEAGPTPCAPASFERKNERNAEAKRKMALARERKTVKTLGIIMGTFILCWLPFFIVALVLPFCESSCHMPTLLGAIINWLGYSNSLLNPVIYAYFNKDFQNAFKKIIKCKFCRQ
Description: Serotonin 5-HT1A binding, displacement of [3H]8-OH-DPAT. Particulars: [3H]8-OH-DPAT displacement, CHO cells stably transfected with human 5-HT1A receptor. From the text:
Affinity for the serotonin 5-HT1A receptor was established by assaying the test compound's ability to displace [^3H]8-OH-DPAT from its binding site on the receptor complex in CHO cells stably transfected with the human 5-HT1A receptor following the procedure described by Dunlop et al., J. PharmacoL ToxicoL Methods 1998, 40, 47.
(Loss of bound radioactivity is the signal in a displacement assay; it reports binding, not function.)

In data set [2] the target is T1, human 5-HT1A receptor. Description: Antagonism of 8-OH-DPAT inhibition of forskolin-stimulated cyclic-AMP turnover in transfected CHO cells. Format: cell-based. The conditions noted are these: CHO cells with human 5-HT1A receptor, read-out: cAMP IC50.
For data set [3] the following is noted: animal models; cited from earlier work.
For data set [4] the following is noted: in vivo; cited from earlier work.
Another data set concerns marmosets. Particulars: cited from earlier work.
The conditions of data set [5]: cited from earlier work.
The next data set deals with DU-145. Particulars: DU-145, in vitro; cited from earlier work.
Another data set concerns LNCaP. The conditions noted are these: in vitro; cited from earlier work.
Another data set relates to PC3 cell line. Particulars: athymic nude mice; cited from earlier work.
For another data set, the system named is PC3. The conditions noted are these: PC3, in vitro; cited from earlier work.

Structures can show the parent of a compound that is named as a salt. Where two headings read alike, the source gives them in different places.

For `C[C@H](CN(C(=O)[C@H]1CC2CCC1CC2)c1ccccn1)N1CCN(c2cccc3[nH]ccc23)CC1` (as salt: hydrochloride) [Example 1, (S)-N-{(2R)-2-[4-(1H-Indol-4-yl)piperazin-1-yl]propyl}-N-pyridin-2-yl-bicyclo[2.2.2]octane-2-carboxamide], the melting point was 180 to 182 °C.

Turning to `C[C@H](CN(C(=O)C1C2CCC1CC2)c1ccccn1)N1CCN(c2cccc3[nH]ccc23)CC1` (stereo partly drawn) (as salt: hydrochloride) [Example 3, N-{(2R)-2-[4-(1H-Indol-4-yl)piperazin-1-yl]propyl}-N-pyridin-2-yl-bicyclo[2.2.1]heptane-7-carboxamide], the melting point lay in the range of 176 to 179 °C.

`C[C@H](CN(C(=O)C1(C)C2CCC1CC2)c1ccccn1)N1CCN(c2cccc3[nH]ccc23)CC1` (stereo partly drawn) (as salt: hydrochloride) [Example 4, N-{(2R)-2-[4-(1H-indol-4-yl)piperazin-1-yl]propyl}-7-methyl-N-pyridin-2-yl-bicyclo[2.2.1]heptane-7-carboxamide] displayed a melting point of 236 to 238 °C.

Compound `C[C@H](CN(C(=O)[C@H]1CC2CCC1CC2)c1ccccn1)N1CCN(c2cccc3[nH]ccc23)CC1` [Example 1, (S)-N-{(2R)-2-[4-(1H-Indol-4-yl)piperazin-1-yl]propyl}-N-pyridin-2-yl-bicyclo[2.2.2]octane-2-carboxamide] registered a Ki on human 5-HT1A receptor [1] of 0.68 nM. The IC50 at human 5-HT1A receptor [2] was 4.1 nM.

The compound `C[C@H](CN(C(=O)[C@@H]1CC2CCC1CC2)c1ccccn1)N1CCN(c2cccc3[nH]ccc23)CC1` [Example 2, (R)-N-[(2R)-2-[4-(1H-Indol-4-yl)-1-piperazinyl]propyl]-N-2-pyridin-2-yl-bicyclo[2.2.2]octane-2-carboxamide] showed a Ki at human 5-HT1A receptor [1] of 0.69 nM. For the same compound, on human 5-HT1A receptor [2], the IC50 came to 2.2 nM.

On human 5-HT1A receptor [1], `C[C@H](CN(C(=O)C1C2CCC1CC2)c1ccccn1)N1CCN(c2cccc3[nH]ccc23)CC1` (stereo partly drawn) [Example 3, N-{(2R)-2-[4-(1H-Indol-4-yl)piperazin-1-yl]propyl}-N-pyridin-2-yl-bicyclo[2.2.1]heptane-7-carboxamide] gave a Ki of 0.98 nM. Further, the 50% inhibitory concentration (IC50) at human 5-HT1A receptor [2] was 74.5 nM.

At human 5-HT1A receptor [1], `C[C@H](CN(C(=O)C1(C)C2CCC1CC2)c1ccccn1)N1CCN(c2cccc3[nH]ccc23)CC1` (stereo partly drawn) [Example 4, N-{(2R)-2-[4-(1H-indol-4-yl)piperazin-1-yl]propyl}-7-methyl-N-pyridin-2-yl-bicyclo[2.2.1]heptane-7-carboxamide] showed a Ki of 0.45 nM. Besides, the IC50 on human 5-HT1A receptor [2] was 6.7 nM.

`OC(CNC1CCCCC1)COc1cccc2[nH]ccc12` (centres unmarked) [LY206130]: the “anxiogenic behaviors induced by nicotine withdrawal” value (from here on “anxiogenic behaviors induced”) in data set [3] is given as “blocked”.

Consider `COc1ccccc1N1CCN(CC[C@](C)(C(=O)C2CCCCC2)c2ccccc2)CC1` [LY 426965], for which the “anxiogenic behaviors induced” value in [3] is “blocked”.

Take `COc1ccccc1N1CCN(CCCCN2C(=O)c3ccccc3C2=O)CC1` [NAN-190]: in data set [3], the “anxiogenic behaviors induced” value was “blocked”.

As to `COc1ccccc1N1CCN(CC(C(=O)NC(C)(C)C)c2ccccc2)CC1` (centres unmarked) [WAY-100135], the “impairment of spatial learning caused by intrahippocampal scopolamine” value in data set [4] is listed as “prevented the impairment of spatial learning”.

For the compound `COc1ccccc1N1CCN(CCN(C(=O)C2CCCCC2)c2ccccn2)CC1` [WAY-100635], in [3], the “anxiogenic behaviors induced” value is recorded as “blocked”. Also, the “cognitive deficits induced by fomix lesions” value in the data set on marmosets is on record as “reversed the cognitive deficits”.

With `CC(C)NCC(O)COc1cccc2[nH]ccc12` (centres unmarked) [pindolol], the “median time needed to achieve a sustained antidepressant response” value in data set [5] (co-administered with the SSRI fluoxetine) and in [5] (co-administered with the SSRI paroxetine) was “significantly reduced the median time” throughout.

Turning to pindobind, the antineoplastic activity result with DU-145, with LNCaP and in the data set with PC3 was “antineoplastic activity” in each case. The “growth of the PC3 cell line in vivo” value in the data set with PC3 cell line was “inhibited the growth”.

One may read the melting point as the temperature of the solid-liquid transition. The term Ki denotes a dissociation constant, usually derived from enzyme kinetics or from competition with a known ligand. Low readings indicate a stronger hold on the target, high ones a looser hold on the target. As usually defined, the IC50 is the concentration that gives 50% inhibition.
